“And” between values parts separate entries of the source, which are not always exact repeats. Equal values may be shown once.
How the values were obtained:
[1] = test system: HMGEC (immortalized human meibomian gland epithelial cells); test: PPARγ-mediated lipid synthesis activity in HMGECs (LipidTox Green neutral lipid staining); assay type: cell-based; conditions: for Effect on lipid synthesis (in words): compared with Rosi
Experimental: Extracts of loquat and ginger identified in Example 1 are tested for their effect on lipid synthesis and PPARγ receptor activation using HMGECs. In particular, HMGECs are plated on collagen coated glass cover slips and treated with samples of each extract (varying concentrations in Media 1 with 0.1% DMSO), positive control (Rosi, 30 μM in Media 1 with 0.1% DMSO), and negative control (Media 1 with 0.1% DMSO) and incubated for 6 days. The treated cells are then fixed, stained with LipidTox Green, and the area of neutral lipid staining quantified.

[2] = test system: PPARγ response genes ADFP, ELOVL4, and ANGPTL4; test: Real-time PCR of PPARγ response gene expression; assay type: cell-based; conditions: FIGS. 1-4
Experimental: Loquat Extract #1 (“538”), and known phytochemical components thereof (oleanolic acid (“OA”); ursolic acid (“UA”)), are analyzed by real-time PCR (BioRad CFX96 Thermal Cycler, Hercules, Calif. (or equivalent)), to assess sample-induced expression of the PPARγ response genes ADFP, ELOVL4, and ANGPTL4 via mRNA quantification. In particular, samples are prepared and analyzed according to the procedure set forth in Jester et. al., “PPARγ regulates mouse meibocyte differentiation and lipid synthesis,” The Ocular Surface 14.4 (2016): 484-494, the disclosure of which is herein incorporated by […]. The results of the quantification are shown in FIGS. 1-4, where the vertical (Y) axis of each plot corresponds to the fold change in response observed.
To assess the effects on gene expression mediation via PPARγ signaling, a PPARγ-specific antagonist (T0070907; (“T”)) is added to inhibit PPARγ signaling. […] As such, Loquat leaf is shown to have specific and synergistic PPARγ agonist activity that may be unrelated to individual phytochemical components thereof.

SMILES | % Lipid Mean (percent positive control, Rosi set at 100%) ([1]; 30 μM, 6 days) | Nuclei Mean ([1]; 30 μM, 6 days) | Effect on lipid synthesis (in words) [1] | PPARγ response gene expression (mRNA of ADFP, ELOVL4, ANGPTL4; PPARγ), fold change, in words [2]
CN(CCOc1ccc(CC2SC(=O)NC2=O)cc1)c1ccccn1 (stereo not drawn) [Rosi, Rosiglitazone] | 97.5% and 100% | 1622.13 and 1070 | – | –
CC1(C)CC[C@]2(C(=O)O)CC[C@]3(C)C(=CC[C@@H]4[C@@]5(C)CC[C@H](O)C(C)(C)[C@@H]5CC[C@]43C)[C@@H]2C1 [oleanolic acid] | – | – | no individual effects | no individual effects
C[C@H]1[C@H](C)CC[C@]2(C(=O)O)CC[C@]3(C)C(=CC[C@@H]4[C@@]5(C)CC[C@H](O)C(C)(C)[C@@H]5CC[C@]43C)[C@H]12 [ursolic acid] | – | – | no individual effects | no individual effects

— patent US20200171117A1, “DRY EYE BOTANICALS” (ACCESS BUSINESS GROUP INTERNATIONAL LLC, priority 2018, published 2020)
